Test results reported in US20260234185A1, “ANTI-AGING COMPOSITION COMPRISING PEPTIDE COMPLEX AS ACTIVE INGREDIENT” (priority 2023, published 2026).
Where no end group is shown, it is not given here.

Assays:
SIRT1 = experiment: Western blot of SIRT1 protein expression in myocytes; assay type: cell-based, mouse; settings: differentiated C2C12 myocytes; 0.2, 2, 20 μg/mL; 24 hours; Western blot (FIGS. 6a, 6b)
Method: (§1) An experiment was performed to determine whether the peptide complex increases the phosphorylation of AMPK and the expression of SIRT1 and FGF21 proteins in myocytes.
(§2) C2C12 cells, mouse-derived myoblasts, were cultured in DMEM medium containing 1% P/S and 2% BCS. When the cell confluency reached 70-80%, the cells were seeded in a 6-well culture plate. When the cell confluency in the 6-well culture plate reached 100%, the medium was replaced with differentiation medium (1% P/S, 2% horse serum), and thereafter, the differentiation medium (1% P/S, 2% horse serum) was replaced once every two days. Five days after the first replacement, the peptide complex was treated at concentrations of 0.2 μg/mL, 2 μg/mL, and 20 μg/mL and cultured for 24 hours. The group untreated with the peptide complex was used as the control. After dissolving by adding dissolution buffer thereto, the proteins obtained were centrifuged at 4° C. and 12,000 rpm for 30 minutes, and quantified using a BCA kit. The proteins were subjected to sodium dodecyl sulfate-polyacrylamide gel electrophoresis (SDS-PAGE) and then electrotransferred onto a membrane. The membrane with the proteins attached was blocked by treating it with 5% skim milk, and then the primary antibody was reacted overnight at 4° C. […]

FGF21 = experiment: Western blot of FGF21 protein expression in myocytes; assay type: cell-based, mouse; settings: differentiated C2C12 myocytes; 0.2, 2, 20 μg/mL; 24 hours; Western blot (FIGS. 6a, 6b)
Method: as §1, §2

[1] = system: fibroblast growth factor 21 (FGF21) gene; experiment: RT-PCR of FGF21 gene expression in palmitate-treated adipocytes; assay type: cell-based; settings: 3T3-L1 adipocytes, 25 μM palmitate 30 minutes; 0.2, 2, 20 μg/mL; 24 hours; RT-PCR vs palmitate control (PA) (FIGS. 4a, 4b)
Method: (§3) An experiment was performed to determine whether the peptide complex prepared in Preparation Example 1 increases the gene expression of longevity-related genes, FGF21, SIRT1, AMPK, and FOXO3A, in adipocytes in a state of insulin metabolic disorder induced by palmitate treatment.
(§4) When 3T3-L1 preadipocytes reached 80% confluence, they were seeded at 5×10^3 cells/well in a 96-well plate and used for the experiment. Two days after reaching confluence, the medium was replaced with differentiation-inducing medium to induce the differentiation into adipocytes, and two days after the induction, the medium was cultured for 2 days in a medium containing 10% FBS and 10 μg/mL insulin, and then the medium was replaced with 10% FBS every 2 days until their differentiation into adipocytes. After differentiation was complete, the medium was replaced with glucose-free medium, cultured for 16 hours, and then starvation was induced by culturing for 40 minutes in 100 μL KPPH buffer containing 2% BSA. After treating with 25 μM palmitate for 30 minutes, the peptide complexes were treated at concentrations of 0.2 μg/mL, 2 μg/mL, and 20 μg/mL, cultured for 24 hours, and RNA was extracted after 24 hours and RT-PCR was performed. […] Subsequently, the mRNA expression pattern was determined by agarose gel electrophoresis.

[2] = system: AMP-activated protein kinase (AMPK); experiment: Western blot of AMPK phosphorylation in palmitate-treated adipocytes (insulin metabolic disorder); assay type: cell-based; settings: 3T3-L1 adipocytes, 25 μM palmitate 30 minutes; 0.2, 2, 20 μg/mL; 24 hours; Western blot (FIGS. 3a, 3b)
Method: An experiment was performed to determine whether the peptide complex prepared in Preparation Example 1 increases the phosphorylation of AMP-activated protein kinase (AMPK) and the expression level of SIRT1 (sirtuin1) protein in adipocytes in a state of insulin metabolic disorder induced by palmitate treatment.
When 3T3-L1 preadipocytes reached 80% confluence, they were seeded at 5×10^3 cells/well in a 96-well plate and used for the experiment. Two days after reaching confluence, the medium was replaced with a differentiation-inducing medium to induce the differentiation into adipocytes, and two days after the induction, the cells were cultured for 2 days in a medium containing 10% FBS and 10 μg/mL insulin, and then the medium was replaced with 10% FBS every 2 days until their differentiation into adipocytes. Once differentiation was complete, the medium was replaced with a serum-free medium and cultured for 4 hours to induce starvation. After 30 minutes of treatment with 25 μM palmitate, the peptide complexes were treated at concentrations of 0.2 μg/mL, 2 μg/mL, and 20 μg/mL and incubated for 24 hours. After dissolving by adding dissolution buffer, the proteins obtained by centrifugation at 4° C. and 12,000 rpm for 30 minutes were quantified using a BCA kit. […]

sirtuin 1 (SIRT1) gene = experiment: RT-PCR of SIRT1 gene expression in palmitate-treated adipocytes; assay type: cell-based; settings: 3T3-L1 adipocytes, 25 μM palmitate 30 minutes; 0.2, 2, 20 μg/mL; 24 hours; RT-PCR vs palmitate control (PA) (FIGS. 4a, 4b)
Method: as §3, §4

FOXO3A gene = experiment: RT-PCR of FOXO3A gene expression in palmitate-treated adipocytes; assay type: cell-based; settings: 3T3-L1 adipocytes, 25 μM palmitate 30 minutes; 0.2, 2, 20 μg/mL; 24 hours; RT-PCR vs palmitate control (PA) (FIGS. 4a, 4b)
Method: as §3, §4

peptide complex: prepared by mixing equal amounts of the peptide of SEQ ID NO: 1 (LKTRN) and the peptide of SEQ ID NO: 2 (KGSATGWMA) (also: mixture of two peptides)
increased: expression level of SIRT1 protein (SIRT1) | expression level of FGF21 protein (FGF21) | expression of fibroblast growth factor 21 (FGF21) gene [1] | phosphorylation of AMPKα [2] | expression of sirtuin 1 (SIRT1) gene (sirtuin 1 (SIRT1) gene) | expression of FOXO3A gene (FOXO3A gene)
